Measured values from paper PMC4926433, “Isoquercitrin Esters with Mono- or Dicarboxylic Acids: Enzymatic Preparation and Properties” (International Journal of Molecular Sciences, 2016).
Several values for one entry are separate records, joined by “and”; a condition that tells them apart may be missing. Equal values may be shown once. Read-outs that look alike come from different tables or passages of the source. Marks after values point to notes of the source that are not given here.

What was measured:
[1] = ABTS radical cation scavenging (Antioxidant Assay Kit); type: biochemical; details: Trolox equivalents; aqueous buffer pH 5; mean ± SE
Experimental: Determination of ABTS scavenging activity involves an electron-transfer reaction. […] The capacity to scavenge the radical cation (ABTS^·) was evaluated using the Antioxidant Assay Kit (CS0790, Sigma-Aldrich, Prague, Czech Republic) and expressed as Trolox equivalents (TE) from the Trolox calibration curve.

[2] = DPPH radical scavenging assay; type: biochemical; details: methanol, DPPH 20 µM, 30 min; mean ± SE
Experimental: When reduced, the solution decolorizes in proportion to the strength and concentration of the antiradical compound tested. The results of this test are usually expressed as the concentration of the compound that reduces 50% of the radical (IC50, Table 1). […] However, no clear relationship between the carboxylic chain length and DPPH radical scavenging activity could be established. Antiradical activity was evaluated spectrophotometrically as the ability of the substances to reduce the DPPH radical as described previously with minor modifications.

[3] = test system: rat liver microsomal membranes; test: Inhibition of microsomal lipid peroxidation induced by tert-butyl hydroperoxide (TBARS); type: biochemical; details: for IC50: male rat liver microsomes, tert-butylhydroperoxide 1 mM, 37 °C, 30 min, TBARS, mean ± SE, read-out: Lpx (IC50; µM)
Description: Lipid peroxidation is a type of oxidative degradation of lipids caused by free radicals in cell membranes, resulting in cell damage. The most notable initiators of this chain reaction in living cells are reactive oxygen species (ROS), such as OH· and HO2·, which combine with a hydrogen atom to make water and a fatty acid radical. We used tert-butyl hydroperoxide, a relatively stable organic peroxide, as initiator of peroxidation of rat liver microsomal membranes. The inhibition of this reaction depends not only on the free radical scavenging capacity, but also on the capacity of these compounds to interact with and penetrate lipid bilayers. Isoquercitrin derivatives differed considerably in their capacity to inhibit the peroxidation of microsomal membranes. […] A similar trend, e.g., improving the activity in medium chain derivatives with subsequent drop for longer chain esters, was reported for anti-proliferative activity of IQ monocarboxylic acid esters on the growth of tumoral Caco2 cells, and also for the inhibition of tyrosinase activity.
Pooled microsomes from male rat livers (M9066, Sigma-Aldrich, Prague, Czech Republic) were washed five times using centrifugation and phosphate-buffered saline (PBS, 13,500 rpm, 5 min, 4 °C) to remove sucrose. In addition, 400 µL of the diluted microsomal suspension (0.625 mg protein/mL in PBS), the compounds tested in 50 µL of dimethyl sulfoxide (DMSO, final concentration 5–2000 µM) and 50 µL of tert-butylhydroperoxide in PBS (final concentration 1 mM) were mixed and incubated at 37 °C for 30 min. Determination of lipid peroxidation products as thiobarbituric acid reactive substances (TBARS) and calculation of the IC50 values were performed as described previously.

[4] = Partition coefficient (log P) in octan-1-ol/phosphate buffer pH 7.4; details: for logP: octan-1-ol / 6.6 mM phosphate buffer pH 7.4, pH 7.4; for Partition Coefficient: octan-1-ol/6.6 mM phosphate buffer pH 7.4, 25 °C, mean ± SD, triplicate
Experimental: The hydrophobicity of the prepared compounds was determined by the measurement of partition coefficient P in a mixture of two immiscible phases—octan-1-ol and 6.6 mM phosphate buffer pH 7.4 to simulate physiological conditions. Before the use, octan-1-ol was stirred with the buffer for 16 h at 25 °C to achieve saturation of both phases, which were then separated.
Then, 150 µL of the stock solutions were mixed with 150 µL of the respective immiscible phase in microcentrifuge tubes (1.5 mL) and stirred (750 rpm) for 2 h at 25 °C in triplicates. Phases were separated and the solute concentration in each phase was determined in 96-well microtitration plates using Sunrise™ spectrophotometer (Schoeller Instruments, Prague, Czech Republic) at 400 nm. Log P was calculated as follows: log Poct/buffer = log([A]octan-1-ol/[A]buffer).

[5] = Folin–Ciocalteau reduction (FCR) assay, reducing capacity; type: biochemical; details: gallic acid equivalents, mean ± SE
Experimental: Folin-Ciocalteu assay, commonly known as the total phenols assay, determines a sample reducing capacity. FCR contains heteropolyphosphotunstate-molybdates, which are reduced in aqueous milieu at pH ≈ 10 to blue species, presumably (PMoW11O40)^4- [29]. […] This is probably related to high hydrophobicity of these derivatives. Reducing capacity was evaluated using Folin-Ciocalteau reagent with minor modifications as described previously.

Row | IC50 [2] | IC50 [3] | fold more active than IQ in inhibition of microsomal lipid peroxidation ([3]; ratio of Lpx IC50 values relative to IQ (1)) | logP [4] | Partition Coefficient [4] | Compound | ABTS (TE) [1] | FCR (GAE) [5] | log P ([4]; pH 7.4) | IC50 ([3]; listed as quercetin) | FCR (GAE) ([5]; listed as quercetin)
1 | 2.23 ± 0.08 µM | 186 ± 3 µM | – | – | – | CCCCCCCC(=O)OC[C@H]1O[C@@H](Oc2c(-c3ccc(O)c(O)c3)oc3cc(O)cc(O)c3c2=O)[C@H](O)[C@@H](O)[C@@H]1O [Compound 6, ((2R,3S,4S,5R,6S)-6-((2-(3,4-Dihydroxyphenyl)-5,7-dihydroxy-4-oxo-4H-chromen-3-yl)oxy)-3,4,5-trihydroxytetrahydro-2H-pyran-2-yl)methyl octanoate] | 1.28 ± 0.07 TE | 1.47 ± 0.10 ^b GAE | – | – | –
2 | 1.58 ± 0.05 µM | 432 ± 24 µM | – | – | – | CCCCCCCCCCCC(=O)OC[C@H]1O[C@@H](Oc2c(-c3ccc(O)c(O)c3)oc3cc(O)cc(O)c3c2=O)[C@H](O)[C@@H](O)[C@@H]1O [Compound 7, ((2R,3S,4S,5R,6S)-6-((2-(3,4-Dihydroxyphenyl)-5,7-dihydroxy-4-oxo-4H-chromen-3-yl)oxy)-3,4,5-trihydroxytetrahydro-2H-pyran-2-yl)methyl dodecanoate] | 1.06 ± 0.09 ^j TE | 0.63 GAE and 0.63 ± 0.07 ^c GAE | – | – | –
3 | 2.23 ± 0.03 µM | 1090 ± 36 µM | – | – | – | CCCCCCCCCCCCCCCC(=O)OC[C@H]1O[C@@H](Oc2c(-c3ccc(O)c(O)c3)oc3cc(O)cc(O)c3c2=O)[C@H](O)[C@@H](O)[C@@H]1O [Compound 8, ((2R,3S,4S,5R,6S)-6-((2-(3,4-Dihydroxyphenyl)-5,7-dihydroxy-4-oxo-4H-chromen-3-yl)oxy)-3,4,5-trihydroxytetrahydro-2H-pyran-2-yl)methyl palmitate] | 1.0 TE and 1.00 ± 0.06 ^j TE | 0.76 GAE and 0.76 ± 0.03 ^c GAE | – | – | –
4 | 1.77 ± 0.06 µM | 1340 ± 54 µM | – | -1.15 | 0.07 ± 0.01 | O=C(O)CCCC(=O)OC[C@H]1O[C@@H](Oc2c(-c3ccc(O)c(O)c3)oc3cc(O)cc(O)c3c2=O)[C@H](O)[C@@H](O)[C@@H]1O [Compound 9, 6-(((2R,3S,4S,5R,6S)-6-((2-(3,4-Dihydroxyphenyl)-5,7-dihydroxy-4-oxo-4H-chromen-3-yl)oxy)-3,4,5-trihydroxytetrahydro-2H-pyran-2-yl)methoxy)-6-oxopentanoic acid] | 2.13 ± 0.08 ^i TE | 1.84 ± 0.05 ^a GAE | – | – | –
5 | 2.19 ± 0.12 µM | 250 ± 19 µM | – | -1 | 0.10 ± 0.01 | O=C(O)CCCCC(=O)OC[C@H]1O[C@@H](Oc2c(-c3ccc(O)c(O)c3)oc3cc(O)cc(O)c3c2=O)[C@H](O)[C@@H](O)[C@@H]1O [Compound 10, 6-(((2R,3S,4S,5R,6S)-6-((2-(3,4-Dihydroxyphenyl)-5,7-dihydroxy-4-oxo-4H-chromen-3-yl)oxy)-3,4,5-trihydroxytetrahydro-2H-pyran-2-yl)methoxy)-6-oxohexanoic acid] | 2.12 ± 0.10 ^i TE | 1.46 ± 0.14 ^b GAE | – | – | –
6 | 2.97 ± 0.22 µM | 33 µM and 32.5 µM | – | 0.48 | 3.00 ± 0.03 | O=C(O)CCCCCCCCCCC(=O)OC[C@H]1O[C@@H](Oc2c(-c3ccc(O)c(O)c3)oc3cc(O)cc(O)c3c2=O)[C@H](O)[C@@H](O)[C@@H]1O [Compound 11, 12-(((2R,3S,4S,5R,6S)-6-((2-(3,4-Dihydroxyphenyl)-5,7-dihydroxy-4-oxo-4H-chromen-3-yl)oxy)-3,4,5-trihydroxytetrahydro-2H-pyran-2-yl)methoxy)-12-oxododecanoic acid] | 2.16 ± 0.08 ^i TE | 1.58 GAE and 1.58 ± 0.05 ^b GAE | – | – | –

Second part, the compound before the results:

Row | Compound | IC50 [2] | IC50 [3] | fold more active than IQ in inhibition of microsomal lipid peroxidation ([3]; ratio of Lpx IC50 values relative to IQ (1)) | logP [4] | Partition Coefficient [4] | ABTS (TE) [1] | FCR (GAE) [5] | log P ([4]; pH 7.4) | IC50 ([3]; listed as quercetin) | FCR (GAE) ([5]; listed as quercetin)
7 | CC(=O)OC[C@H]1O[C@@H](Oc2c(-c3ccc(O)c(O)c3)oc3cc(O)cc(O)c3c2=O)[C@H](O)[C@@H](O)[C@@H]1O [Compound 2, ((2R,3S,4S,5R,6S)-6-((2-(3,4-Dihydroxyphenyl)-5,7-dihydroxy-4-oxo-4H-chromen-3-yl)oxy)-3,4,5-trihydroxytetrahydro-2H-pyran-2-yl)methyl acetate] | 2.51 ± 0.1 µM | 42 ± 2.1 µM | 23 × | 1.14 | 13.76 ± 0.01 | 2.04 ± 0.07 ^i TE | 1.63 ± 0.07 ^b GAE | – | – | –
8 | CCCC(=O)OC[C@H]1O[C@@H](Oc2c(-c3ccc(O)c(O)c3)oc3cc(O)cc(O)c3c2=O)[C@H](O)[C@@H](O)[C@@H]1O [Compound 4, ((2R,3S,4S,5R,6S)-6-((2-(3,4-Dihydroxyphenyl)-5,7-dihydroxy-4-oxo-4H-chromen-3-yl)oxy)-3,4,5-trihydroxytetrahydro-2H-pyran-2-yl)methyl butyrate] | 2.51 ± 0.17 µM | 24.1 ± 0.8 µM | – | 1.96 | 90.64 ± 0.03 | 2.16 ± 0.08 ^i TE | 1.72 ± 0.03 ^a GAE | – | – | –
9 | CCCCCC(=O)OC[C@H]1O[C@@H](Oc2c(-c3ccc(O)c(O)c3)oc3cc(O)cc(O)c3c2=O)[C@H](O)[C@@H](O)[C@@H]1O [Compound 5, ((2R,3S,4S,5R,6S)-6-((2-(3,4-Dihydroxyphenyl)-5,7-dihydroxy-4-oxo-4H-chromen-3-yl)oxy)-3,4,5-trihydroxytetrahydro-2H-pyran-2-yl)methyl hexanoate] | 3.07 ± 0.1 µM | 20 µM and 19.7 µM | – | 2.1 | 126.43 ± 0.01 | 2.11 ± 0.09 ^i TE | 1.48 ± 0.05 ^b GAE | – | – | –
10 | O=c1c(O)c(-c2ccc(O)c(O)c2)oc2cc(O)cc(O)c12 [Quercetin, quercetin, reference compound] | – | – | – | – | 86.27 ± 0.02 | – | – | – | – | –
11 | C[C@@H]1O[C@@H](OC[C@H]2O[C@@H](Oc3c(-c4ccc(O)c(O)c4)oc4cc(O)cc(O)c4c3=O)[C@H](O)[C@@H](O)[C@@H]2O)[C@H](O)[C@H](O)[C@H]1O [Rutin, quercetin-3-O-[α-L-rhamnopyranosyl-(1→6)-β-D-glucopyranose], reference compound] | 3.66 ± 0.39 µM | 202 ± 8 µM | – | – | 0.41 ± 0.01 | 1.79 ± 0.09 TE | 2.19 ± 0.10 GAE | – | – | –
12 | ((2R,3S,4R,5R,6S)-3-Acetoxy-6-((2-(3,4-dihydroxyphenyl)-5,7-dihydroxy-4-oxo-4H-chromen-3-yl)oxy)-4,5-dihydroxytetrahydro-2H-pyran-2-yl)methyl acetate [Compound 3] | 2.15 ± 0.04 µM | 433 ± 19 µM | – | – | – | 1.56 ± 0.04 TE | 1.67 ± 0.11 ^b GAE | 1.59 | – | –
13 | quercetin [reference compound] | 3.78 ± 0.15 µM | 29.8 ± 0.6 µM | – | – | – | 2.14 ± 0.10 ^i TE | 2.80 ± 0.16 GAE | – | 30 µM | 2.80 GAE
